The nature of series [1]: Cytotoxicity against human THP1 cells. The note with it: THP-1 cells. It is filed as cell-based.
Series [2] in a line: Selectivity index, ratio of CC50 for human THP1 cells to EC50 for amastigote stage of Leishmania donovani MHOM/ET/67/HU3. It is filed as toxicity, cell-based. Particulars: THP-1 cells, read-out: Ratio CC50/EC50.
Series [3] deals with Leishmania donovani. The experiment in a line: Antileishmanial activity against amastigote stage of Leishmania donovani MHOM/ET/67/HU3 infected in human THP1 cells assessed as parasite clearance after 3 days by Draq5 staining-based confocal microscopic analysis. The note with it: MHOM/ET/67/HU3, THP-1, 72 h. It is filed as functional, organism-based.
The subject of series [4] is Leishmania donovani. The experiment in a line: Antileishmanial activity against promastigote stage of Leishmania donovani MHOM/ET/67/HU3 assessed as parasite viability after 48 hrs by resazurin dye-based assay. It is filed as functional, organism-based. Particulars: MHOM/ET/67/HU3, 48 h.

`COc1ccc(NC(=O)c2c(NC(=O)C(F)(F)F)sc3c2CCCCC3)cc1` gave a CC50 in series [1] of over 50 µM. In addition, the selectivity ratio in series [2] was over 7.8. In addition, the values for the EC50 in series [3] and in series [4] were 6.41 µM and over 50 µM, respectively.
As to `Cc1ccc(NC(=O)c2c(NC(=O)C(F)(F)F)sc3c2CCCCC3)cc1`, the half-maximal cytotoxic concentration (CC50) in series [1] was over 50 µM. The EC50 in series [3] is over 50 µM.
`CC(C)(C)OC(=O)c1c(N)sc2c1CCCCC2`: in series [1], the cytotoxic concentration (CC50) is over 50 µM. In addition, the EC50 in series [3] is over 50 µM.
As for `COc1ccccc1NC(=O)c1c(NC(=O)C(F)(F)F)sc2c1CCCCC2`, the half-maximal cytotoxic concentration (CC50) in series [1] is over 50 µM. Moreover, the EC50 in series [3] is over 50 µM; in series [4], 42 µM.
`O=C(Nc1ccc(Cl)cc1)c1c(NC(=O)C(F)(F)F)sc2c1CCCCC2`: the 50% cytotoxic concentration (CC50) in series [1] is over 50 µM. Moreover, in series [3], the EC50 is over 50 µM.
In series [1], `O=C(Nc1ccc(C(F)(F)F)cc1)c1c(NC(=O)C(F)(F)F)sc2c1CCCCC2` had a cytotoxic concentration (CC50) of 17.2 µM. Moreover, in series [2], the selectivity ratio came out at 0.9. Further, the 50% effective concentration (EC50) was 17.6 µM in series [3] and over 50 µM in series [4].
The like results for `O=C(Nc1ccc(OC(F)(F)F)cc1)c1c(NC(=O)C(F)(F)F)sc2c1CCCCC2` were, in that order, 11.9 µM, 1.2, 9.85 µM and over 50 µM.
The like results for `N#Cc1ccc(NC(=O)c2c(NC(=O)C(F)(F)F)sc3c2CCCCC3)cc1` were, in that order, 9.11 µM, 1.06, 8.53 µM and over 50 µM.
Consider `COc1ccc(CNC(=O)c2c(NC(=O)C(F)(F)F)sc3c2CCCCC3)cc1`, for which, in series [1], the 50% cytotoxic concentration (CC50) is over 50 µM. The EC50 in series [3] and in series [4] was over 50 µM each time.
Compound `CC(C)(C)NC(=O)c1c(NC(=O)C(F)(F)F)sc2c1CCCCC2` had a CC50 in series [1] of over 50 µM. Further, in series [3], the 50% effective concentration (EC50) is over 50 µM.
Consider `COc1ccc(NC(=O)c2c(NC(C)=O)sc3c2CCCCC3)cc1`, for which the CC50 in series [1] was over 50 µM. The concentration for a half-maximal effect (EC50) in series [3] and in series [4] was over 50 µM throughout.
In series [1], `COC(=O)Nc1sc2c(c1C(=O)Nc1ccc(OC)cc1)CCCCC2` displayed a CC50 of over 50 µM. Besides, the EC50 in series [3] is over 50 µM.
Regarding `COc1ccc(NC(=O)c2c(NC(=O)c3ccccc3)sc3c2CCCCC3)cc1`, in series [1], the CC50 is over 50 µM. The EC50 in series [3] is over 50 µM.
For the compound `CC(=O)Nc1sc2c(c1C(=O)OC(C)(C)C)CCCCC2`, the 50% cytotoxic concentration (CC50) in series [1] is over 50 µM. Also, in series [3], the half-maximal effective concentration (EC50) was over 50 µM.
As for `COc1ccc(NC(=O)c2c(NC(=O)C(F)(F)F)sc3c2CCCC3)cc1`, the cytotoxic concentration (CC50) in series [1] was over 50 µM. Further, the selectivity ratio in series [2] is over 3.42. Further, the EC50 in series [3] is 14.6 µM; in series [4], over 50 µM.
In turn, `COc1ccc(NC(=O)c2c(NC(=O)C(F)(F)F)sc3c2CCC3)cc1` displayed a half-maximal cytotoxic concentration (CC50) in series [1] of over 50 µM. Besides, the 50% effective concentration (EC50) in series [3] is over 50 µM.
Regarding `COc1ccc(NC(=O)c2c(NC(=O)C(F)(F)F)sc(C)c2C)cc1`, the 50% cytotoxic concentration (CC50) in series [1] was over 50 µM. The selectivity ratio in series [2] is over 4.95. Also, the EC50 was 10.1 µM in series [3] and over 50 µM in series [4].
For `COc1ccc(NC(=O)c2ccsc2NC(=O)C(F)(F)F)cc1`, the half-maximal cytotoxic concentration (CC50) in series [1] is over 50 µM. The EC50 in series [3] and in series [4] was over 50 µM throughout.
`COc1cccc(NC(=O)c2c(NC(=O)C(F)(F)F)sc3c2CCCCC3)c1`: the 50% cytotoxic concentration (CC50) in series [1] was determined as 37.6 µM. Moreover, the selectivity ratio in series [2] was determined as 3.71. Also, the EC50 is 10.1 µM in series [3] and 21.5 µM in series [4].
In the same order, the values of `C[C@@H]1[C@H](O)[C@@H](C)/C=C/C=C/C=C/C=C/C=C/C=C/C=C/[C@H](O[C@@H]2O[C@H](C)[C@@H](O)[C@H](N)[C@@H]2O)C[C@@H]2O[C@](O)(C[C@@H](O)C[C@@H](O)[C@H](O)CC[C@@H](O)C[C@@H](O)CC(=O)O[C@H]1C)C[C@H](O)[C@H]2C(=O)O` [AMPHOTERICIN B] are 7.57 µM, 30.2, 0.25 µM and 0.18 µM.
Compound `CCCCCCCCCCCCCCCCOP(=O)([O-])OCC[N+](C)(C)C` [MILTEFOSINE] had a cytotoxic concentration (CC50) in series [1] of 22.7 µM. Also, the selectivity ratio in series [2] came out at 3.19. In addition, the EC50 in series [3] came to 7.1 µM; in series [4], 7.4 µM.

The CC50 is the concentration that lowers cell viability or growth by half. A lower CC50 goes with harm at low concentration. For orientation: EC50 means the concentration needed to bring the measured effect to its halfway point.

The values above are taken from ChEMBL document CHEMBL3132753, “Synthesis and biological evaluation of 2-acetamidothiophene-3-carboxamide derivatives against Leishmania donovani” (Medchemcomm, 2014).
